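96-well plates; 48 h exposure; 5 concentrations. Endpoints by linear interpolation between flanking doses. Not reached: highest tested concentration assigned. At the TGI there is no net growth.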
What was measured:
Experiment in all cases: NCI tumour cell line growth inhibition, 48 h
ACHN renal = system: ACHN renal
CCRF-CEM leukemia = system: CCRF-CEM leukemia
DU-145 prostate = system: DU-145 prostate
HOP-62 NSCLC = system: HOP-62 NSCLC
KM12 colon = system: KM12 colon
MALME-3M melanoma = system: MALME-3M melanoma
OVCAR-5 ovarian = system: OVCAR-5 ovarian
SF-295 CNS = system: SF-295 CNS
SNB-19 CNS = system: SNB-19 CNS
UO-31 renal = system: UO-31 renal

Structure (SMILES) | TGI (ACHN renal) [µM] | TGI (CCRF-CEM leukemia) [µM] | TGI (DU-145 prostate) [µM] | TGI (HOP-62 NSCLC) [µM] | TGI (KM12 colon) [µM] | TGI (MALME-3M melanoma) [µM] | TGI (OVCAR-5 ovarian) [µM] | TGI (SF-295 CNS) [µM] | TGI (SNB-19 CNS) [µM] | TGI (UO-31 renal) [µM]
O=C(CC(=O)Nc1ccccc1)NNC(Sc1ccccc1)c1cc(N=Nc2ccc(Br)cc2)ccc1O (stereo not given) | > 10 | > 10 | > 10 | > 10 | > 10 | > 10 | > 10 | > 10 | > 10 | > 10
O=C1C(=Nc2ccc(Nc3ccccc3)cc2)Oc2ccccc21 | 9.93 | 4.92 | 21 | 22 | 4.03 | 9.71 | 10.1 | 12.1 | 8.25 | 5.58
CO/N=C(/C(=O)OC)c1ccccc1COc1ccccc1C(F)(F)F | > 100 | > 100 | > 100 | > 100 | > 100 | 47.2 | > 100 | > 100 | > 100 | > 100
CC(C)(C)OC(=O)NC(CSSCC(NC(=O)OC(C)(C)C)C(=O)O)C(=O)O (stereo not given) | > 100 | > 100 | > 100 | > 100 | > 100 | > 100 | > 100 | > 100 | > 100 | > 100
CC(C)Oc1cccc(N2C(=NCc3c[nH]c4ccccc34)Nc3ccncc3S2(=O)=O)c1 | > 100 | > 100 | > 100 | > 100 | > 100 | 58.8 | > 100 | > 100 | > 100 | > 100
Nc1ncnc2c1ccn2C/C=C/CO | > 100 | > 100 | > 100 | > 100 | > 100 | > 100 | > 100 | > 100 | > 100 | > 100
O=[N+]([O-])c1cc2oc(CSc3ccccc3)nc2cc1Cl | > 100 | > 100 | > 100 | > 100 | > 100 | > 100 | > 100 | 93.9 | > 100 | 87.3
COc1cc(O)c2c(=O)c(OC)c(-c3ccc(OC)c(O)c3)oc2c1 | > 100 | > 100 | > 100 | > 100 | > 100 | > 100 | > 100 | > 100 | > 100 | > 100
Cn1ncc2c(NCc3ccccc3)ncnc21 | > 100 | > 100 | > 100 | > 100 | > 100 | > 100 | > 100 | > 100 | > 100 | > 100
CC1(C)C=CC(=O)C(O)C(C)(C)C1=O (stereo not given) | > 100 | 3.63 | > 100 | > 100 | > 100 | > 100 | > 100 | > 100 | > 100 | > 100
Cc1ccc(/C=C2/N=C(N/N=C\C(O)C(O)C(O)C(O)CO)NC2=O)cc1 (stereo not given) | > 100 | > 100 | > 100 | > 100 | > 100 | > 100 | > 100 | > 100 | > 100 | > 100
CCOC(=O)CC/C(=N/Nc1ccc(Cl)cc1[N+](=O)[O-])C(=O)OCC | > 100 | > 100 | > 100 | > 100 | > 100 | > 100 | > 100 | > 100 | > 100 | > 100
C=C1C(=O)[C@@]23CC[C@@H]4[C@@]5(C)CCC[C@@]4(OC5=O)[C@@]2(C)CC[C@@H]1C3 | 2.64 | > 33.7 | 12.2 | > 23.7 | 10.2 | 5.31 | 6.27 | 20.9 | 9.08 | 3.43
CSc1nc2c(c(N(C)C)n1)C(O)n1c(nc3ccccc31)S2 (stereo not given) | > 100 | > 100 | > 100 | 69.1 | > 100 | > 100 | > 100 | > 100 | > 77.9 | > 100
CCOC(=O)C(NC(=O)CC)(N1CCN(c2cc3c(cc2F)c(=O)c(C(=O)O)cn3C2CC2)CC1)C(F)(F)F (stereo not given) | > 100 | > 100 | > 100 | > 100 | > 100 | > 100 | > 100 | > 100 | > 100 | > 100
C=C(C)[C@H]1C2=CC(C(=O)OC)=C(C[C@H](C(=C)C)[C@@H](O)[C@@H](O)C3=C[C@H]1OC3=O)O2 | > 100 | > 100 | > 100 | > 100 | > 100 | > 100 | > 100 | > 100 | > 100 | 85.6
Cc1nc2ccccc2c(-n2cccn2)c1CCn1cccn1 | > 100 | > 100 | > 100 | > 100 | > 100 | > 100 | > 100 | > 100 | > 100 | 3.43

Reference: PubChem BioAssay (NCI)
